From US20050070510A1, “Substituted tetracycline compounds as synergistic antifungal agents” (Paratek Pharmaceuticals, Inc., priority 2001, published 2005) come the findings set out here.

The structures appear in SMILES notation.

The series concerns COS-1 cells. Description: In vitro mammalian cytotoxicity assay (Resazurin).
As to `CN(C)[C@@H]1C(O)=C(C(=O)NC(C)(C)C)C(=O)[C@@]2(C#N)C(O)=C3C(=O)c4c(O)cccc4C(N)[C@@]3(N)[C@H](O)[C@@]12N` (stereo partly drawn) [DA], the “In Vitro Cytotoxicity” value is on record as “* (toxicities greater than >25 μg/ml are represented by *)”. With `CN(C)[C@@H]1C(O)=C(C(N)=O)C(=O)[C@@]2(C#N)C(O)=C3C(=O)c4c(O)ccc(-c5ccc(NC(=O)NCCCCl)cc5)c4C[C@@]3(N)C[C@@]12N` [US] the entry was “** (toxicities less than 25 μg/mL are represented by **)”. With `CN(C)[C@@H]1C(O)=C(C(N)=O)C(=O)[C@@]2(C#N)C(O)=C3C(=O)c4c(ccc(Nc5nc(C6C7CC8CC(C7)CC6C8)cs5)c4O)[C@H](O)[C@@]3(N)[C@H](O)[C@@]12N` (stereo partly drawn) [DX] the entry was “** (toxicities less than 25 μg/mL are represented by **)”; with `CN(C)[C@@H]1C(O)=C(C(N)=O)C(=O)[C@@]2(C#N)C(O)=C3C(=O)c4c(O)ccc(CCCNS(C)(=O)=O)c4C[C@@]3(N)C[C@@]12N` [IV], “* (toxicities greater than >25 μg/ml are represented by *)”; with `CN(C)[C@@H]1C(O)=C(C(N)=O)C(=O)[C@@]2(C#N)C(O)=C3C(=O)c4c(O)cccc4[C@H](N)[C@@]3(N)[C@H](OC(=O)CCN3CCCC3)[C@@]12N` [BQ], “** (toxicities less than 25 μg/mL are represented by **)”. As to `CN(C)[C@@H]1C(O)=C(C(N)=O)C(=O)[C@@]2(C#N)C(O)=C3C(=O)c4c(ccc(-c5cccc(C(N)=O)c5)c4O)[C@H](N)[C@@]3(N)[C@H](O)[C@@]12N` [PP], the “In Vitro Cytotoxicity” value was “** (toxicities less than 25 μg/mL are represented by **)”.

Regarding `CCCCOC(=O)Nc1cc(N(C)C)c2c(c1O)C(=O)C1=C(O)[C@]3(C#N)C(=O)C(C(N)=O)=C(O)[C@@H](N(C)C)[C@]3(N)C[C@]1(N)C2` [KI], the “In Vitro Cytotoxicity” value is given as “** (toxicities less than 25 μg/mL are represented by **)”. For `CN(C)[C@@H]1C(O)=C(C(N)=O)C(=O)[C@@]2(C#N)C(O)=C3C(=O)c4c(O)ccc(/C=C/c5ccccn5)c4C[C@@]3(N)C[C@@]12N` [FA], the “In Vitro Cytotoxicity” value is “** (toxicities less than 25 μg/mL are represented by **)”.

Regarding `Cc1ccc(C#Cc2ccc(O)c3c2C[C@@]2(N)C[C@@]4(N)[C@H](N(C)C)C(O)=C(C(N)=O)C(=O)[C@@]4(C#N)C(O)=C2C3=O)cc1` [GI], the “In Vitro Cytotoxicity” value is given as “** (toxicities less than 25 μg/mL are represented by **)”. As for `CN(C)c1ccc(-c2cc(N)c(O)c3c2C[C@@]2(N)C[C@@]4(N)C(N(C)C)C(O)=C(C(N)=O)C(=O)[C@@]4(C#N)C(O)=C2C3=O)cc1` (stereo partly drawn) [RB], the entry is “* (toxicities greater than >25 μg/ml are represented by *)”. As for `CN(C)[C@@H]1C(O)=C(C(N)=O)C(=O)[C@@]2(C#N)C(O)=C3C(=O)c4c(O)ccc(-c5ccc(NC(=O)CBr)cc5)c4C[C@@]3(N)C[C@@]12N` [UV], the “In Vitro Cytotoxicity” value is “** (toxicities less than 25 μg/mL are represented by **)”. As for `COc1ccc(CNCc2cccc(F)c2)cc1-c1ccc(O)c2c1[C@H](N)[C@]1(N)C(=C(O)[C@]3(C#N)C(=O)C(C(N)=O)=C(O)[C@@H](N(C)C)[C@]3(N)[C@H]1O)C2=O` [QL], the entry is “* (toxicities greater than >25 μg/ml are represented by *)”; as for `CC#Cc1cc(N(C)C)c2c(c1O)C(=O)C1=C(O)[C@]3(C#N)C(=O)C(C(N)=O)=C(O)[C@@H](N(C)C)[C@]3(N)C[C@]1(N)C2` [FH], “* (toxicities greater than >25 μg/ml are represented by *)”. With `CC(=O)c1ccc(-c2cc(N(C)C)c3c(c2O)C(=O)C2=C(O)[C@]4(C#N)C(=O)C(C(N)=O)=C(O)[C@@H](N(C)C)[C@]4(N)C[C@]2(N)C3)cc1` [Compound HJ, 9-(4′-Acetylphenyl) Minocycline] the entry was “** (toxicities less than 25 μg/mL are represented by **)”; with `CN(C)[C@@H]1C(O)=C(C(N)=O)C(=O)[C@@]2(C#N)C(O)=C3C(=O)c4c(O)cccc4/C(=C\c4ccc5ccccc5c4)[C@@]3(N)[C@H](O)[C@@]12N` [DQ], “** (toxicities less than 25 μg/mL are represented by **)”. Consider `CC(=O)C(N)c1cc(C(C)(C)C)c(O)c2c1C[C@@]1(N)C[C@@]3(N)[C@H](N(C)C)C(O)=C(C(N)=O)C(=O)[C@@]3(C#N)C(O)=C1C2=O` (stereo partly drawn) [NN], for which the “In Vitro Cytotoxicity” value is “* (toxicities greater than >25 μg/ml are represented by *)”. As for `CN(C)c1cc(C#Cc2cccc(O)c2)c(O)c2c1C[C@@]1(N)C[C@@]3(N)[C@H](N(C)C)C(O)=C(C(N)=O)C(=O)[C@@]3(C#N)C(O)=C1C2=O` [FG], the entry is “** (toxicities less than 25 μg/mL are represented by **)”; as for `C=CC(O)O[C@H]1[C@@]2(N)C(=C(O)[C@]3(C#N)C(=O)C(C(N)=O)=C(O)[C@@H](N(C)C)[C@]13N)C(=O)c1c(O)cccc1[C@@H]2N` (stereo partly drawn) [BO], “** (toxicities less than 25 μg/mL are represented by **)”; as for `COC(CN(Cc1ccc(O)c2c1C[C@@]1(N)C[C@@]3(N)[C@H](N(C)C)C(O)=C(C(N)=O)C(=O)[C@@]3(C#N)C(O)=C1C2=O)CC(OC)OC)OC` [SG], “* (toxicities greater than >25 μg/ml are represented by *)”. As for `Cc1ccc(S(=O)(=O)NC(=O)C#Cc2cc(N(C)C)c3c(c2O)C(=O)C2=C(O)[C@]4(C#N)C(=O)C(C(N)=O)=C(O)[C@@H](N(C)C)[C@]4(N)C[C@]2(N)C3)cc1` [JJ], the entry is “* (toxicities greater than >25 μg/ml are represented by *)”; as for `Cc1ccc(-c2ccc(O)c3c2C[C@@]2(N)C[C@@]4(N)[C@H](N(C)C)C(O)=C(C(N)=O)C(=O)[C@@]4(C#N)C(O)=C2C3=O)cc1C` [OJ], “** (toxicities less than 25 μg/mL are represented by **)”; as for `CN(C)[C@@H]1C(O)=C(C(N)=O)C(=O)[C@@]2(C#N)C(O)=C3C(=O)c4c(O)c(NC(=O)OCC(C)(C)C)cc(CN)c4C[C@@]3(N)C[C@@]12N` [QM], “* (toxicities greater than >25 μg/ml are represented by *)”. On to `Cc1ccc(/C=C/c2ccc(O)c3c2C[C@@]2(N)C[C@@]4(N)[C@H](N(C)C)C(O)=C(C(N)=O)C(=O)[C@@]4(C#N)C(O)=C2C3=O)cc1` [HA], for which the “In Vitro Cytotoxicity” value is listed as “** (toxicities less than 25 μg/mL are represented by **)”.

As for `CN(C)[C@@H]1C(O)=C(C(N)=O)C(=O)[C@@]2(C#N)C(O)=C3C(=O)c4c(O)ccc(-c5ccc(CNCc6ccccc6)cc5)c4C[C@@]3(N)C[C@@]12N` [HP], the “In Vitro Cytotoxicity” value is on record as “** (toxicities less than 25 μg/mL are represented by **)”. Regarding `CN(C)[C@@H]1C(O)=C(C(N)=O)C(=O)[C@@]2(C#N)C(O)=C3C(=O)c4c(O)ccc(-c5ccc(Cl)cc5)c4C[C@@]3(N)C[C@@]12N` [DM], the “In Vitro Cytotoxicity” value is reported as “** (toxicities less than 25 μg/mL are represented by **)”. Consider `CCOC(=O)C(C)(/N=N/c1ccc2c(c1O)C(=O)C1=C(O)[C@]3(C#N)C(=O)C(C(N)=O)=C(O)[C@@H](N(C)C)[C@]3(N)[C@@H](O)[C@]1(N)[C@H]2N)C(=O)OCC` [DK], for which the “In Vitro Cytotoxicity” value is “** (toxicities less than 25 μg/mL are represented by **)”. With `CCCCc1ccc(-c2cc(N(C)C)c3c(c2O)C(=O)C2=C(O)[C@]4(C#N)C(=O)C(C(N)=O)=C(O)[C@@H](N(C)C)[C@]4(N)C[C@]2(N)C3)cc1` [LY] the entry was “** (toxicities less than 25 μg/mL are represented by **)”; with `CO/N=C(/C)c1cc(C(C)(C)C)c(O)c2c1C[C@@]1(N)C[C@@]3(N)[C@H](N(C)C)C(O)=C(C(N)=O)C(=O)[C@@]3(C#N)C(O)=C1C2=O` [RA], “** (toxicities less than 25 μg/mL are represented by **)”; with `CC(C)CNCc1cc(N(C)C)c2c(c1O)C(=O)C1=C(O)[C@]3(C#N)C(=O)C(C(N)=O)=C(O)[C@@H](N(C)C)[C@]3(N)C[C@]1(N)C2` [ML], “* (toxicities greater than >25 μg/ml are represented by *)”. With `CN(C)[C@@H]1C(O)=C(C(N)=O)C(=O)[C@@]2(C#N)C(O)=C3C(=O)c4c(O)cccc4C(N)[C@@]3(N)[C@H](OC(=O)CNC(=O)OC(C)(C)C)[C@@]12N` (stereo partly drawn) [AU] the entry was “** (toxicities less than 25 μg/mL are represented by **)”; with `CN(C)c1cc(C#CCc2ccccc2)c(O)c2c1C[C@@]1(N)C[C@@]3(N)[C@H](N(C)C)C(O)=C(C(N)=O)C(=O)[C@@]3(C#N)C(O)=C1C2=O` [KL], “** (toxicities less than 25 μg/mL are represented by **)”. With `CN(C)[C@@H]1C(O)=C(C(N)=O)C(=O)[C@@]2(OC(=O)CC(C)(C)C)C(O)=C3C(=O)c4c(ccc(NC(=O)NC(C)(C)C)c4O)[C@H](N)[C@@]3(N)[C@H](O)[C@@]12N` [BG] the entry was “** (toxicities less than 25 μg/mL are represented by **)”.

With `CN(C)c1cc(CCC2(O)CCCC2)c(O)c2c1C[C@@]1(N)C[C@@]3(N)[C@H](N(C)C)C(O)=C(C(N)=O)C(=O)[C@@]3(C#N)C(O)=C1C2=O` [PW], the “In Vitro Cytotoxicity” value is recorded as “** (toxicities less than 25 μg/mL are represented by **)”. On to `CN(C)c1cc(CNCC(C)(C)C)c(O)c2c1C[C@@]1(N)C[C@@]3(N)[C@H](N(C)C)C(O)=C(C(N)=O)C(=O)[C@@]3(C#N)C(O)=C1C2=O` [TK], for which the “In Vitro Cytotoxicity” value is on record as “* (toxicities greater than >25 μg/ml are represented by *)”. With `CCCCCN(Cc1cccc(-c2ccc(O)c3c2C[C@@]2(N)C[C@@]4(N)[C@H](N(C)C)C(O)=C(C(N)=O)C(=O)[C@@]4(C#N)C(O)=C2C3=O)c1)P(=O)(OCC)OCC` [KO], the “In Vitro Cytotoxicity” value was “* (toxicities greater than >25 μg/ml are represented by *)”. With `CN(C)[C@@H]1C(O)=C(C(N)=O)C(=O)[C@@]2(C#N)C(O)=C3C(=O)c4c(ccc(N5CCCCC5)c4O)[C@H](N)[C@@]3(N)[C@H](O)[C@@]12N` [SA] the entry was “* (toxicities greater than >25 μg/ml are represented by *)”. As for `CN(C)[C@@H]1C(O)=C(C(N)=O)C(=O)[C@@]2(C#N)C(O)=C3C(=O)c4c(ccc(-c5ccc(F)cc5)c4O)[C@H](N)[C@@]3(N)[C@H](O)[C@@]12N` [BR], the entry is “** (toxicities less than 25 μg/mL are represented by **)”; as for `CCCCCOC(=O)NCc1cc(N(C)C)c2c(c1O)C(=O)C1=C(O)[C@]3(C#N)C(=O)C(C(N)=O)=C(O)[C@@H](N(C)C)[C@]3(N)C[C@]1(N)C2` [NF], “** (toxicities less than 25 μg/mL are represented by **)”. As for `CN(C)[C@@H]1C(O)=C(C(N)=O)C(=O)[C@@]2(C#N)C(O)=C3C(=O)c4c(O)ccc(C(=O)O)c4C[C@@]3(N)C[C@@]12N` [JR], the entry is “* (toxicities greater than >25 μg/ml are represented by *)”.
